Assay results from patent US10660877B2 (BRISTOL-MYERS SQUIBB COMPANY, priority 2016, dated 2020).
Like-named read-outs stand apart in the source and are kept apart here.

Experiments:
human TLR7 = human TLR7 (Homo sapiens (Human), UniProt Q9NYK1); assay: TLR7 inhibition reporter assay (HEK-Blue cells, SEAP reporter, gardiquimod stimulation); assay type: cell-based
human TLR8 = human TLR8 (Homo sapiens (Human), UniProt Q9NR97); assay: TLR8 inhibition reporter assay (HEK-Blue cells, SEAP reporter, R848 stimulation);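 further: compounds tested from 0.05 nM to 50 µM, 22 h at 37 °C, SEAP measured with HEK-Blue Detection, inhibition relative to agonist plus DMSO versus a known inhibitor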
human TLR9 = human TLR9 (Homo sapiens (Human), UniProt Q9NR96); assay: TLR9 inhibition reporter assay (HEK-Blue cells, SEAP reporter, ODN2006 stimulation);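 further: compounds tested over 0.05 nM to 50 µM, 22 h incubation, inhibition taken as SEAP signal drop from agonist plus DMSO wells toward a known inhibitor control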
[1] = HEK-Blue cells overexpressing human TLR7, gardiquimod 7.5 μM
[2] = read-out: TLR8 IC50, HEK-Blue cells overexpressing human TLR8, R848 15.9 μM
[3] = read-out: TLR9 IC50, HEK-Blue cells overexpressing human TLR9, ODN2006 5 nM

Chain of human TLR9 (Q9NR96 26-1032): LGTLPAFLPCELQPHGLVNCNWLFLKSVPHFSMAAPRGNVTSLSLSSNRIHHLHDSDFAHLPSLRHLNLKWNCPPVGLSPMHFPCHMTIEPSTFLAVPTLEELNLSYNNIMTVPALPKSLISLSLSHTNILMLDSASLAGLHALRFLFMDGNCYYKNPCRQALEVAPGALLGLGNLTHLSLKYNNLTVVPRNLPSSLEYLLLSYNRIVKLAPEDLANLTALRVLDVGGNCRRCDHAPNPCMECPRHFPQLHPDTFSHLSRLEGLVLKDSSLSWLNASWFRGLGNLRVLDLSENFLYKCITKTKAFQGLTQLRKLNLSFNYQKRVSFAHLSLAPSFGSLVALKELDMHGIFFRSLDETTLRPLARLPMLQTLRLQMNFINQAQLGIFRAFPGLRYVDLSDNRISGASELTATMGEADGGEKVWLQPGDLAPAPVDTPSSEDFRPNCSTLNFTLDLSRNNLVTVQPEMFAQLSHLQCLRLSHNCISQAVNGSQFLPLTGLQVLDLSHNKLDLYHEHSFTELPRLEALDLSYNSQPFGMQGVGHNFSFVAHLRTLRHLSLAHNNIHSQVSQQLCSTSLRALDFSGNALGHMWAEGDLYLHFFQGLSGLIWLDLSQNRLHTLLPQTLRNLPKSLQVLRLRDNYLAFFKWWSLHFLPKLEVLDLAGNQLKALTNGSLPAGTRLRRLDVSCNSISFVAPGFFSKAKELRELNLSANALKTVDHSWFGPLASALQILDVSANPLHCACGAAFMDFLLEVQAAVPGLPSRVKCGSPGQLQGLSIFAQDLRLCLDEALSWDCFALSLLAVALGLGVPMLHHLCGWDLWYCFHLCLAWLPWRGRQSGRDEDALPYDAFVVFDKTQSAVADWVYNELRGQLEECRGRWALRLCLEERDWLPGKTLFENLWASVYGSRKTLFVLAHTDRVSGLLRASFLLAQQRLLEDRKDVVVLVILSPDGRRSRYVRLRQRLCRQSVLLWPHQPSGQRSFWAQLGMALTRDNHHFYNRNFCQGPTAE
Chain of human TLR7 (Q9NYK1 27-1049): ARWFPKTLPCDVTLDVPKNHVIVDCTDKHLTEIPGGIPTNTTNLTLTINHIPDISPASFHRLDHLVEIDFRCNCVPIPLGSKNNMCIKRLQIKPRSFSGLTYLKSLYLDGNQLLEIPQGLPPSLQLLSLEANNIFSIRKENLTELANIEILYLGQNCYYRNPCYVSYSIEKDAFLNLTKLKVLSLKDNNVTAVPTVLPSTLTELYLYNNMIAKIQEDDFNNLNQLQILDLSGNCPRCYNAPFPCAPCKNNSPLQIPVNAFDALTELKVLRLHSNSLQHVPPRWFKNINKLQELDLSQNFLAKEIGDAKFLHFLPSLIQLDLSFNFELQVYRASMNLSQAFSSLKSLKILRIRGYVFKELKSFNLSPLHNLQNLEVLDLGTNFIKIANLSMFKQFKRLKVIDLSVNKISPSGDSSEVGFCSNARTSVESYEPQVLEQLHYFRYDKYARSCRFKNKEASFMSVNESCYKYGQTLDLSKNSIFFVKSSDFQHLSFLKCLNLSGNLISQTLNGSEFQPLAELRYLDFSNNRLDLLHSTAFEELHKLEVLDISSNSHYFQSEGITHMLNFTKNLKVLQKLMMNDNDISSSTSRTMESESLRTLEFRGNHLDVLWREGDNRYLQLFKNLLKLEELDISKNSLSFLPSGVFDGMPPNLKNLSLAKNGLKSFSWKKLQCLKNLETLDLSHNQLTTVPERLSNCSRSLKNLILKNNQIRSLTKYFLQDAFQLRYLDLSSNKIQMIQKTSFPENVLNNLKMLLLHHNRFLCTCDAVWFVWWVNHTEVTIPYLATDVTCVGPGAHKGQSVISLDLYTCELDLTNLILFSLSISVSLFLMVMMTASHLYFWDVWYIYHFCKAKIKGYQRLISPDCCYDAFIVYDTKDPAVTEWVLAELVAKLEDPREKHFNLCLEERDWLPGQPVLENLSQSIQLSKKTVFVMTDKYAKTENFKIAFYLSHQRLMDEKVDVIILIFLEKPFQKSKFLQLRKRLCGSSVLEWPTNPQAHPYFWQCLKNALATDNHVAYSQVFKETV
Chain of human TLR8 (Q9NR97 27-1041): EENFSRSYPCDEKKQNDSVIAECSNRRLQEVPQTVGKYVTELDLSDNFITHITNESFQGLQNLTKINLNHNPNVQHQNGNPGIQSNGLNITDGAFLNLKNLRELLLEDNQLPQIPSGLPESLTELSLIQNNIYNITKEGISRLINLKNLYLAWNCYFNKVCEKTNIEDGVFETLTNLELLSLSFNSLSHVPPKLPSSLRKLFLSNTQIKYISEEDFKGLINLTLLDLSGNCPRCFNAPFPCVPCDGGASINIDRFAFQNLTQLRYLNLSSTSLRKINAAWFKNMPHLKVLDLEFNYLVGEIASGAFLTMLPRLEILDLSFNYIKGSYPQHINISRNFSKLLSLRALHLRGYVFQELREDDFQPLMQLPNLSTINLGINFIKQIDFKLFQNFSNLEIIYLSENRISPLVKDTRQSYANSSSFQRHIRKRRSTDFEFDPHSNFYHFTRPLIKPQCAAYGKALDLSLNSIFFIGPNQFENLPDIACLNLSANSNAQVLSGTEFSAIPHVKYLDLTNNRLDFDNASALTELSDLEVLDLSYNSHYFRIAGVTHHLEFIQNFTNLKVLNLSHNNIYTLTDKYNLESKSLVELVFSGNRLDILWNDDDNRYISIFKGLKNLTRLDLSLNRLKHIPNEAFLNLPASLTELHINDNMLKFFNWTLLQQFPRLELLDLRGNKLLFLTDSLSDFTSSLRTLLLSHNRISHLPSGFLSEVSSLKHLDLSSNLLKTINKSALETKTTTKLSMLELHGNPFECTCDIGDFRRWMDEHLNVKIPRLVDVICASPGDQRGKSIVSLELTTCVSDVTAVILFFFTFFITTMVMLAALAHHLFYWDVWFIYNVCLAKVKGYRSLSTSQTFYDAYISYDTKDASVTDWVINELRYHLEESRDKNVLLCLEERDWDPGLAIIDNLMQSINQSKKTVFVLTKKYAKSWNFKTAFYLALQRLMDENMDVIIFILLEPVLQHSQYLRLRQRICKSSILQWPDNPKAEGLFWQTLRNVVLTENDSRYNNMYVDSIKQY

`Cc1cc(-c2[nH]c3ccc(C4CCN(C(=O)CNS(C)(=O)=O)CC4)cc3c2C(C)C)cc(C)n1` [Example 150, N-(2-(4-(2-(2,6-dimethylpyridin-4-yl)-3-isopropyl-1H-indol-5-yl)piperidin-1-yl)-2-oxoethyl) methanesulfonamide] gave an IC50 (human TLR7; [1]) of 7.3 nM, an IC50 (human TLR8; [2]) of 71.6 nM and an IC50 (human TLR9; [3]) of 53100 nM.

Work on `Cc1cc(-c2[nH]c3ccc(C4CCN(C(=O)CNCC(C)C)CC4)cc3c2C(C)C)cc(C)n1` [Example 338, 1-(4-(2-(2,6-dimethylpyridin-4-yl)-3-isopropyl-1H-indol-5-yl)piperidin-1-yl)-2-(isobutylamino)ethan-1-one] yielded an IC50 (human TLR7; [1]) of 5.8 nM, an IC50 (human TLR8; [2]) of 23.5 nM and an IC50 (human TLR9; [3]) of 553 nM.

With `Cc1cc(-c2[nH]c3ccc(C4CCN(C(=O)CN(C)CC(C)(C)O)CC4)cc3c2C(C)C)cc(C)n1` [Example 401, 1-(4-(2-(2,6-dimethylpyridin-4-yl)-3-isopropyl-1H-indol-5-yl)piperidin-1-yl)-2-((2-hydroxy-2-methylpropyl)(methyl)amino) ethan-1-one] the IC50 (human TLR7; [1]) was 9 nM, the IC50 (human TLR8; [2]) was 53 nM and the IC50 (human TLR9; [3]) was 1060 nM.

In the case of `CNCCN1CCC(c2ccc3[nH]c(-c4ccncc4OC)c(C)c3c2)CC1` [Example 754, 2-(4-(2-(3-methoxypyridin-4-yl)-3-methyl-1H-indol-5-yl)piperidin-1-yl)-N-methylethan-1-amine], the IC50 (human TLR7; [1]) is reported as 5860 nM, the IC50 (human TLR8; [2]) is reported as 27.5 nM and the IC50 (human TLR9; [3]) is reported as 325 nM.

`Cc1cc(-c2[nH]c3ccc(C4CCN(CCO)CC4)cc3c2C(C)C)c(F)cn1` [Example 647, 2-(4-(2-(5-fluoro-2-methylpyridin-4-yl)-3-isopropyl-1H-indol-5-yl)piperidin-1-yl)ethan-1-ol] gave an IC50 (human TLR7; [1]) of 3.9 nM, an IC50 (human TLR8; [2]) of 2.3 nM and an IC50 (human TLR9; [3]) of 2660 nM.

In the case of `Cc1cc(-c2[nH]c3ccc(C4CCN(C(=O)c5c(C)n[nH]c5C)CC4)cc3c2C(C)C)cc(C)n1` [Example 121, (3,5-dimethyl-1H-pyrazol-4-yl)(4-(2-(2,6-dimethylpyridin-4-yl)-3-isopropyl-1H-indol-5-yl)piperidin-1-yl)methanone], the IC50 (human TLR7; [1]) is reported as 30 nM, the IC50 (human TLR8; [2]) is reported as 98 nM and the IC50 (human TLR9; [3]) is reported as 10700 nM.

`Cc1c(-c2[nH]c3ccc(C4CCNCC4)cc3c2C(C)C)ccnc1Cl` [Example 35, 2-(2-chloro-3-methylpyridin-4-yl)-3-isopropyl-5-(piperidin-4-yl)-1H-indole] was tested, and the IC50 (human TLR7; [1]) was 26.7 nM, the IC50 (human TLR8; [2]) was 28.8 nM and the IC50 (human TLR9; [3]) was 4080 nM.

`CNC(=O)C(=O)N1CCC(c2ccc3[nH]c(-c4cc(C)nc(C)c4)c(C(C)C)c3c2)CC1` [Example 205, 2-(4-(2-(2,6-dimethylpyridin-4-yl)-3-isopropyl-1H-indol-5-yl)piperidin-1-yl)-N-methyl-2-oxoacetamide] showed an IC50 (human TLR7; [1]) of 4.4 nM, an IC50 (human TLR8; [2]) of 76.3 nM and an IC50 (human TLR9; [3]) of 19200 nM.

For `COc1cc(-c2[nH]c3ccc(C4CCN(C)CC4)cc3c2C(C)C)ccn1` [Example 638, 3-isopropyl-2-(2-methoxypyridin-4-yl)-5-(1-methylpiperidin-4-yl)-1H-indole], the IC50 (human TLR7; [1]) was 15.6 nM, the IC50 (human TLR8; [2]) was 55.1 nM and the IC50 (human TLR9; [3]) was 3300 nM.

`Cc1cc(-c2[nH]c3ccc(C4CCN(C(=O)CN5CCOC[C@@H]5CO)CC4)cc3c2C(C)C)cc(C)n1` [Example 405, (S)-1-(4-(2-(2,6-dimethylpyridin-4-yl)-3-isopropyl-1H-indol-5-yl)piperidin-1-yl)-2-(3-(hydroxymethyl)morpholino)ethan-1-one] gave an IC50 (human TLR7; [1]) of 2.1 nM, an IC50 (human TLR8; [2]) of 12.9 nM and an IC50 (human TLR9; [3]) of 527 nM.

Work on `Cc1cc(-c2[nH]c3ccc(C4CCN(C(=O)C5(N)COC5)CC4)cc3c2C(C)C)ccn1` [Example 634, (3-aminooxetan-3-yl)(4-(3-isopropyl-2-(2-methylpyridin-4-yl)-1H-indol-5-yl)piperidin-1-yl)methanone] yielded an IC50 (human TLR7; [1]) of 73.5 nM, an IC50 (human TLR8; [2]) of 223 nM and an IC50 (human TLR9; [3]) greater than 50000 nM.

With `Cc1cc(-c2[nH]c3ccc(C4CCN(C(C)C(=O)N(C)C)CC4)cc3c2CC(F)F)cc(C)n1` (stereo not drawn) [Example 493, 2-(4-(3-(2,2-difluoroethyl)-2-(2,6-dimethylpyridin-4-yl)-1H-indol-5-yl)piperidin-1-yl)-N,N-dimethylpropanamide] the IC50 (human TLR7; [1]) was 84.5 nM, the IC50 (human TLR8; [2]) was 498 nM and the IC50 (human TLR9; [3]) was 1640 nM.

`CCc1c(-c2ccnc(C)c2)[nH]c2ccc(C3CCN(CC(O)CN(C)C(C)C)CC3)cc12` (stereo not drawn) [Example 877, 1-(4-(3-ethyl-2-(2-methylpyridin-4-yl)-1H-indol-5-yl)piperidin-1-yl)-3-(isopropyl(methyl)amino)propan-2-ol] was tested, and the IC50 (human TLR7; HEK-Blue cells, gardiquimod 7.5 μM) was 30.6 nM, the IC50 (human TLR8; read-out: TLR8 IC50, HEK-Blue cells, R848 15.9 μM) was 2.9 nM and the IC50 (human TLR9; read-out: TLR9 IC50, HEK-Blue cells, ODN2006 5 nM) was 16 nM.

Compound `CCc1c(-c2ccnc(C)c2)[nH]c2ccc(C3CCN(C(=O)C4CCNCC4c4ccccc4)CC3)cc12` (stereo not drawn) [Example 627, (4-(3-ethyl-2-(2-methylpyridin-4-yl)-1H-indol-5-yl)piperidin-1-yl)(3-phenylpiperidin-4-yl)methanone] has an IC50 (human TLR7; [1]) of 531 nM, an IC50 (human TLR8; [2]) of 325 nM and an IC50 (human TLR9; [3]) of 546 nM.

Compound `Cc1cc(-c2[nH]c3ccc(C4CCN(C(=O)CN5CC[C@H](N)C5=O)CC4)cc3c2C(C)C)cc(C)n1` [Example 188, (S)-3-amino-1-(2-(4-(2-(2,6-dimethylpyridin-4-yl)-3-isopropyl-1H-indol-5-yl)piperidin-1-yl)-2-oxoethyl)pyrrolidin-2-one] has an IC50 (human TLR7; [1]) of 2.1 nM, an IC50 (human TLR8; [2]) of 12.8 nM and an IC50 (human TLR9; [3]) of 972 nM.

With `Cc1cc(-c2[nH]c3ccc(C4CCN(CC(=O)N(CCO)Cc5ccc(F)cc5)CC4)cc3c2C(C)C)cc(C)n1` [Example 300, 2-(4-(2-(2,6-dimethylpyridin-4-yl)-3-isopropyl-1H-indol-5-yl)piperidin-1-yl)-N-(4-fluorobenzyl)-N-(2-hydroxyethyl)acetamide] the IC50 (human TLR7; [1]) was 28.8 nM, the IC50 (human TLR8; [2]) was 70.7 nM and the IC50 (human TLR9; [3]) was 1660 nM.

`Cc1cc(-c2[nH]c3ccc(C4CCN(C(=O)CNCC5CCCO5)CC4)cc3c2C(C)C)cc(C)n1` (stereo not drawn) [Example 373, 1-(4-(2-(2,6-dimethylpyridin-4-yl)-3-isopropyl-1H-indol-5-yl)piperidin-1-yl)-2-(((tetrahydrofuran-2-yl)methyl)amino)ethan-1-one] showed an IC50 (human TLR7; [1]) of 2.5 nM, an IC50 (human TLR8; [2]) of 17.5 nM and an IC50 (human TLR9; [3]) of 429 nM.

In the case of `Cc1cc(-c2[nH]c3ccc(C4CCNCC4)cc3c2C(C)C)c(CO)cn1` [Example 42, (4-(3-isopropyl-5-(piperidin-4-yl)-1H-indol-2-yl)-6-methylpyridin-3-yl)methanol], the IC50 (human TLR7; [1]) is reported as 52.7 nM, the IC50 (human TLR8; [2]) is reported as 2.5 nM and the IC50 (human TLR9; [3]) is reported as 897 nM.

For `COCCNC(=O)CN1CCC(c2ccc3[nH]c(-c4cc(C)nc(C)c4)c(C(C)C)c3c2)CC1` [Example 231, 2-(4-(2-(2,6-dimethylpyridin-4-yl)-3-isopropyl-1H-indol-5-yl)piperidin-1-yl)-N-(2-methoxyethyl)acetamide], the IC50 (human TLR7; [1]) was 8.6 nM, the IC50 (human TLR8; [2]) was 10.1 nM and the IC50 (human TLR9; [3]) was 1130 nM.

Compound `Cc1cc(-c2[nH]c3ccc(C4CCN(CC(=O)N5C(C)CCC5C)CC4)cc3c2C(C)C)cc(C)n1` (stereo not drawn) [Example 261, 2-(4-(2-(2,6-dimethylpyridin-4-yl)-3-isopropyl-1H-indol-5-yl)piperidin-1-yl)-1-(2,5-dimethylpyrrolidin-1-yl)ethan-1-one] has an IC50 (human TLR7; [1]) of 5.7 nM, an IC50 (human TLR8; [2]) of 22.3 nM and an IC50 (human TLR9; [3]) of 451 nM.

For `Cc1cc(-c2[nH]c3ccc(C4CCNCC4)cc3c2C2CC2)cc(C)n1` [Example 93, 3-cyclopropyl-2-(2,6-dimethylpyridin-4-yl)-5-(piperidin-4-yl)-1H-indole], the IC50 (human TLR7; [1]) was 3.3 nM, the IC50 (human TLR8; [2]) was 9.2 nM and the IC50 (human TLR9; [3]) was 122 nM.
